Data from patent US20040209915A1, “Library of biphenyl derivatives” (priority 2003, published 2004).

Tests used:
[1] = target: T1, human β2 adrenergic receptor (Homo sapiens, UniProt P07550); experiment: Whole-cell cAMP Flashplate assay with lung epithelial cell line (BEAS-2B) endogenously expressing human β2 adrenergic receptor; format: cell-based; settings: BEAS-2B cells
T1 construct: expressed in transfected cells

[2] = target: T1, human β2 adrenergic receptor; experiment: Radioligand binding assay for human β2 adrenergic receptor; settings: displacement of [3H]-dihydroalprenolol, CHO cell membranes
M3 muscarinic receptor = target: T2, M3 muscarinic receptor (Homo sapiens, UniProt P20309); experiment: Radioligand binding assay for muscarinic receptors; settings: displacement of [3H]-NMS, CHO cell membranes
T2 construct: expressed in transfected cells
T2 sequence (P20309 whole entry): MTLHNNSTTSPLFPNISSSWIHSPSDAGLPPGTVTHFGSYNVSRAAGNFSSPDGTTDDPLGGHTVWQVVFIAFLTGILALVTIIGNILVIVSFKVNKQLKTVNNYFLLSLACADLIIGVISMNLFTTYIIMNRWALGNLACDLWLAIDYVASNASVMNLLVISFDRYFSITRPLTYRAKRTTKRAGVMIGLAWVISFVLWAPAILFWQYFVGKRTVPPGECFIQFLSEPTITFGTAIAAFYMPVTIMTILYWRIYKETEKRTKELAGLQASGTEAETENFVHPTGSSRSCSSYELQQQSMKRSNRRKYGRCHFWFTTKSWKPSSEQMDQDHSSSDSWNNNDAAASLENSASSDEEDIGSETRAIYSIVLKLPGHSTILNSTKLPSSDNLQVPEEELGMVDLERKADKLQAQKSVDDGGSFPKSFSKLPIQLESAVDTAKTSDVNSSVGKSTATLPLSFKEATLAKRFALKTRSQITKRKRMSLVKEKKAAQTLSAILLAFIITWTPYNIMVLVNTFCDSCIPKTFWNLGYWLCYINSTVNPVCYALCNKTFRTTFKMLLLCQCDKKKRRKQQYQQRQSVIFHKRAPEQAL
Description: CHO cell lines stably expressing cloned human hM1, hM2, hM3 and hM4 muscarinic receptor subtypes, respectively, were grown to near confluency in HAM's F-12 media supplemented with 10% FBS and 250 μg/mL Geneticin. The cells were grown in a 5% CO2, 37° C. incubator and lifted with 2 mM EDTA in dPBS. […] For membrane preparation, cell pellets were resuspended in lysis buffer and homogenized with a Polytron PT-2100 tissue disrupter (Kinematica AG; 20 seconds×2 bursts). Crude membranes were centrifuged at 40,000×g for 15 minutes at 4° C. The membrane pellet was then resuspended with resuspension buffer and homogenized again with the Polytron tissue disrupter.

[3] = target: T1, human β2 adrenergic receptor; experiment: Whole-cell cAMP Flashplate assay in CHO cell lines heterologously expressing human β2 adrenergic receptor; format: cell-based; settings: CHO-K1 cells
Description: Cells were rinsed with PBS and detached in dPBS (Dulbecco's Phosphate Buffered Saline, without CaCl2 and MgCl2) containing 2 mM EDTA or Trypsin-EDTA solution (0.05% trypsin/0.53 mM EDTA). […] About 60,000 to 80,000 cells per well were used in this assay. Test compounds (10 mM in DMSO) were diluted into PBS containing 0.1% BSA in Beckman Biomek-2000 and tested at 11 different concentrations ranging from 100 μM to 1 pM.

T1 sequence (P07550 whole entry): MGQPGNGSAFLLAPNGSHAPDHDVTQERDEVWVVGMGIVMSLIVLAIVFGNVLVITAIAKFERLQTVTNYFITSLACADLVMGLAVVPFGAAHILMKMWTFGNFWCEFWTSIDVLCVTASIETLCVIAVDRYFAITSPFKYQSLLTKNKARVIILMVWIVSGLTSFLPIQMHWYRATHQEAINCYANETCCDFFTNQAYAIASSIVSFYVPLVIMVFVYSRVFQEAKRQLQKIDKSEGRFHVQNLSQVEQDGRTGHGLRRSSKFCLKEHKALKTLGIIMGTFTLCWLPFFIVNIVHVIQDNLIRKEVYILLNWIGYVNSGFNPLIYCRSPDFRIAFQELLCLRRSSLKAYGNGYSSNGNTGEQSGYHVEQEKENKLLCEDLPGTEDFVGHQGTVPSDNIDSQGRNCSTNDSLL

O=C(CCN1CCC(OC(=O)Nc2ccccc2-c2ccccc2)CC1)NCCCCCNC[C@H](O)c1ccc(O)c2[nH]c(=O)ccc12 [Example 6, Biphenyl-2-ylcarbamic Acid 1-(2-{5-[(R)-2-Hydroxy-2-(8-hydroxy-2-oxo-1,2-dihydroquinolin-5-yl)ethylamino]pentylcarbamoyl}ethyl)piperidin-4-yl Ester, Ditrifluoroacetate]
< 10 nM: EC50 [1] | Ki [2] | Ki (M3 muscarinic receptor) | EC50 [3]
